Experimental data reported in patent US4999372A, “New aminochromanol compounds” (ADIR et Compagnie, priority 1988, dated 1991).
Read-outs that look alike come from different tables or passages of the source.

Columns and labels:
aorta of the rat = experiment: Relaxation of rat aortic rings contracted by potassium depolarisation (KCl); assay type: cell-based; conditions: Rattus norvegicus, rat aorta rings without endothelium
Procedure: Male Wistar rats (325-375 g) are anaesthetised i.p. using sodium pentobarbital (30 mg/kg). The thoracic aorta and the mesenteric portal vein are removed. The aorta is dissected into rings 3 mm long and the endothelium is removed mechanically.
The organs are placed in a 20 ml thermostatically controlled vessel containing a physiological solution composed of (mM): NaCl 112; KCl 5; KH2 PO4 1; MgSO4 1.2; CaCl2 2.5; NaHCO3 25; glucose 11.5; EDTA 0.1; pH: 7.4; 37° C.; 95% O2 +5% CO2.
The initial force applied is 2 g in the case of the aorta and 0.5 g in the case of the portal vein. The variations in force are measured by a STATHAM sensor connected to a transducer amplifier (GOULD) and are monitored continuously on a GOULD 2400 graphic recorder.
The experimental protocols are as follows: After a stabilisation period of 90 minutes, the aortic rings are subjected to various tests:
potassium depolarisation:
The preparations are exposed to a 30 mM or 80 mM KCl (and 87 and 37 mM NaCl, respectively) hyperpotassium medium; after 30 minutes' stabilisation of contraction, cumulative concentrations of the product to be tested are added every 15 minutes. The relaxation values obtained allow the IC50 s to be calculated.
The products are used in a form dissolved in water or a suitable solvent.
The concentrations expressed refer to the final concentrations in terms of base in the isolated organ baths.

[1] = tested on: spontaneously hypertensive rat (SHR); experiment: Arterial pressure in the conscious spontaneously hypertensive rat (SHR), oral; assay type: in vivo
Procedure: The study is carried out on SHR male rats (Charles River) weighing from 260 g to 330 g and aged from 18 to 20 weeks. A polyethylene catheter is positioned at the level of the abdominal aorta and tunnelised at the level of the neck under anaesthesia (ketamine hydrochloride 150 mg/kg intraperitoneally). The animals, placed in movement-restraining cages, are tested in the conscious state at least 48 hours after intervention. The arterial pressure, measured by a STATHAM P23 pressure sensor connected to the abdominal catheter, is registered on a GOULD 2400 recorder. […] The doses administered are expressed in mg/kg of base.
The results obtained with a certain number of representative products of the invention and a reference product, CROMAKALIM, are grouped in the following Table. The variations in systolic and diastolic arterial pressure (PAS and PAD) presented at the most significant times after treatment are expressed as percentage variation with respect to the control values.

[2] = tested on: conscious renally hypertensive dog; experiment: Arterial pressure in the conscious renally hypertensive dog; assay type: in vivo; conditions: gastric intubation, 0.1 mg/kg
Procedure: Mongrel dogs weighing from 20 to 25 kg are used. A silastic catheter positioned under anaesthesia (sodium pentobarbital 30 mg/kg i.v.) at the level of the abdominal aorta and left over a prolonged period permits the later measurement of the arterial pressure in the conscious animals. Arterial hypertension is induced by a second intervention under anaesthesia consisting in a constriction of the left renal artery using a clip, which reduces its rate of flow by approximately 70%, the left kidney is enveloped in a latex capsule and the contralateral kidney is left in place.
The systolic and diastolic arterial pressures (PAS and PAD) are measured using a STATHAM P23 pressure sensor connected to the silastic catheter and linked to a GOULD pressure amplifier. The products are tested on the animals, which have become hypertensive, in the conscious state, at least one week after the second intervention. The arterial pressure is monitored continuously on an ES1000 GOULD recorder until 7 hours have elapsed after the treatment and then until 24 hours have elapsed.
The products to be tested are administered via the digestive system, after gastric intubation, in a form dissolved in water or a suitable solvent. The doses administered are expressed in mg of base with respect to body weight.
The representative products of the invention were compared with the reference product (CROMAKALIM). The variations in the systolic and diastolic arterial pressures (PAS and PAD), presented at the most significant times after treatment, are expressed as percentage variation with respect to the control values.

anaesthetised dog = experiment: Haemodynamic study in the anaesthetised dog (vascular resistances), i.v.; assay type: in vivo
Procedure: A complete haemodynamic study was carried out on mongrel dogs weighing from 25 to 30 kg, which were anaesthetised with sodium pentobarbital 30 mg/kg i.v., intubated and ventilated and subjected to a thoracotomy at the 5th left intercostal space. The measurement of the […] is carried out using electromagnetic rings positioned at the level of the ascending aorta and the circumflex branch of the left coronary artery, respectively, and connected to GOULD SP 2202 electromagnetic flow meters. The aortic pressure is measured by a MILLAR probe introduced via the femoral artery.
The total peripheral vascular resistance values (TPR) and the mean coronary vascular resistance values (CVRM) are calculated by the ratio between the mean aortic pressure and the mean cardiac output and the mean coronary output, respectively. The products tested were injected via the femoral vein in a form dissolved in water or a suitable solvent.
The evolution of the vascular resistances, expressed as percentage variation with respect to the control values, is presented as a function of time in the following Table.

guinea pig = experiment: Bronchospasm produced by a histamine aerosol at 4%, compound i.v.; assay type: in vivo; conditions: 0.35 mg/kg i.v.
Procedure: The bronchodilating activity has been studied in the guinea pig by the method of H. KONZETT and R. ROSSLER, Arch. Exp. Path. U. Pharm. 195, 71 (1940).
For example, the bronchospasm produced in the guinea pig by a histamine aerosol et 4% is inhibited of 96% by the compound of Example 1 B form, at the dose of 0.30 mg/kg i.v., and of 100% by the compound of Example 24 B form, at the dose of 0.35 mg/kg i.v.

In the case of `COC[C@@H]1CCC(=O)N1C1c2cc(C#N)ccc2OC(C)(C)C1O` (single isomer, unassigned) [Example 2 form A, 3S,4R- or 3R,4S-trans-2,2-dimethyl-3-hydroxy-4-(2-oxo-5S-methoxymethyl-1-pyrrolidinyl)-6-cyanochroman], the IC50 (aorta of the rat; 30 mM KCl, read-out: IC50 (M) KCl 30 mM) is reported as 2.8e-07 M, the IC50 (aorta of the rat; 80 mM KCl, read-out: IC50 (M) KCl 80 mM) is reported as greater than 0.0001 M and the “Variation (%) of PAD after treatment” value ([1]; 1.0 mg/kg, 1 H) is reported as -21 ± 4%. For the same compound, the “Variation (%) of PAS after treatment” value ([1]; 1.0 mg/kg, 1 H) was -16 ± 3%, the “Variation (%) of PAD after treatment” value ([1]; 1.0 mg/kg, 3 H) was -19 ± 3% and the “Variation (%) of PAS after treatment” value ([1]; 1.0 mg/kg, 3 H) was -12 ± 3%. The “Variation (%) of PAD after treatment” value ([1]; 1.0 mg/kg, 6 H) was -14 ± 2%, the “Variation (%) of PAS after treatment” value ([1]; 1.0 mg/kg, 6 H) was -9 ± 2% and the “Variation (%) of PAD after treatment” value ([1]; 1.0 mg/kg, 30 min) was -17 ± 3%. The “Variation (%) of PAS after treatment” value ([1]; 1.0 mg/kg, 30 min) was -11 ± 2%, the “Variation (%) of PAD after treatment” value ([1]; 3.0 mg/kg, 1 H) was -36 ± 3% and the “Variation (%) of PAS after treatment” value ([1]; 3.0 mg/kg, 1 H) was -26 ± 2%. For the same compound, the “Variation (%) of PAD after treatment” value ([1]; 3.0 mg/kg, 3 H) was -31 ± 3%, the “Variation (%) of PAS after treatment” value ([1]; 3.0 mg/kg, 3 H) was -25 ± 3% and the “Variation (%) of PAD after treatment” value ([1]; 3.0 mg/kg, 6 H) was -27 ± 3%. For the same compound, the “Variation (%) of PAS after treatment” value ([1]; 3.0 mg/kg, 6 H) was -21 ± 3%, the “Variation (%) of PAD after treatment” value ([1]; 3.0 mg/kg, 30 min) was -35 ± 3% and the “Variation (%) of PAS after treatment” value ([1]; 3.0 mg/kg, 30 min) was -24 ± 1%. For the same compound, the “Variation (%) of PAD after treatment” value ([2]; 1 H) was -20%, the “Variation (%) of PAS after treatment” value ([2]; 1 H) was -12% and the “Variation (%) of PAD after treatment” value ([2]; 3 H) was -32%. For the same compound, the “Variation (%) of PAS after treatment” value ([2]; 3 H) was -28%, the “Variation (%) of PAD after treatment” value ([2]; 7 H) was -44% and the “Variation (%) of PAS after treatment” value ([2]; 7 H) was -41%. For the same compound, the “Variation (%) of PAD after treatment” value ([2]; 24 H) was 0%, the “Variation (%) of PAS after treatment” value ([2]; 24 H) was -2% and the “Variation (%) of PAD after treatment” value ([2]; 30 min) was -14%. For the same compound, the “Variation (%) of PAS after treatment” value ([2]; 30 min) was -2%, the “Variation (%) of CVRM after treatment” value (anaesthetised dog; 30 μg/kg, 1 min) was -28.9% and the “Variation (%) of TPR after treatment” value (anaesthetised dog; 30 μg/kg, 1 min) was -9.8%. For the same compound, the “Variation (%) of CVRM after treatment” value (anaesthetised dog; 30 μg/kg, 10 min) was -20.2%, the “Variation (%) of TPR after treatment” value (anaesthetised dog; 30 μg/kg, 10 min) was -11.8% and the “Variation (%) of CVRM after treatment” value (anaesthetised dog; 30 μg/kg, 30 min) was -22.1%. The “Variation (%) of TPR after treatment” value (anaesthetised dog; 30 μg/kg, 30 min) was -11.8%, the “Variation (%) of CVRM after treatment” value (anaesthetised dog; 100 μg/kg, 1 min) was -54.7% and the “Variation (%) of TPR after treatment” value (anaesthetised dog; 100 μg/kg, 1 min) was -15.8%. For the same compound, the “Variation (%) of CVRM after treatment” value (anaesthetised dog; 100 μg/kg, 10 min) was -56.1%, the “Variation (%) of TPR after treatment” value (anaesthetised dog; 100 μg/kg, 10 min) was -14.7% and the “Variation (%) of CVRM after treatment” value (anaesthetised dog; 100 μg/kg, 30 min) was -50.5%. For the same compound, the “Variation (%) of TPR after treatment” value (anaesthetised dog; 100 μg/kg, 30 min) was -12.6%.

In the case of `COC(=O)c1ccc2c(c1)C(N1C(=O)CCC1CO)C(O)C(C)(C)O2` (single isomer, unassigned) [Example 24 B form], the “Inhibition of the bronchospasm produced by a histamine aerosol at 4%” value (guinea pig) is reported as 100%.
